Data on 33 compounds can be found in the METLIN SMRT retention time set (Domingo-Almenara et al. 2019).

A short description of this data set: gradient 5% acetonitrile 3 min, to 50% in 2 min, to 85% in 15 min, held 3 min, 100 µL/min. The conditions noted are these: column: Zorbax Extend-C18 2.1 x 50 mm; eluents: water / acetonitrile, 0.1% formic acid. A digest of the protocol: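 In both positive and negative ionization mode, a quadrupole time-of-flight mass spectrometer coupled to HPLC analyzed pure standards run in mixtures of ~100 molecules. The Zorbax Extend-C18 column (2.1 × 50 mm, 1.8 μm) was operated at 100 μL/min with water and acetonitrile, each containing 0.1% formic acid. The dead volume was 40 μL and the dwell volume 900 μL. Retention time came from adduct peaks that were computationally picked and individually inspected by hand.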
As for `O=C(Cn1c(=O)sc2ccccc21)Nc1nc(-c2ccc(Br)cc2)cs1`, the RP-LC retention time worked out at 1070 s.
Then `CSc1ccc(CNC(=O)CN2C(=O)C3CCCCN3c3ccc(C(=O)N4CCCC4)cc32)cc1` (stereo not drawn), with 850 s; and `Cc1ccnc(N2CCC(C(=O)NCCCN3CCCc4ccccc43)CC2)n1`, with 665 s; and `CCc1noc2nc(C)n(CC(=O)NCCC3=CCCCC3)c(=O)c12`, with 908 s.
Then `CC(C)n1c(=O)sc2cc(S(=O)(=O)N3CCC(C(=O)NCc4cccnc4)CC3)ccc21`, with 808 s; and `CN(C)C(CNC(=O)Nc1cccs1)c1cccs1` (stereo not drawn), with 556 s.
In the case of `Cc1cccc(S(=O)(=O)N(C)CC2(C)CCOCC2)c1`, the RP-LC retention time stood at 918 s.
Then `C=CCn1c(SCC#CCO)nc2ccccc2c1=O`, with 744 s; and `CC(C)NC(=O)N(C)CCc1noc(COc2ccc(Cl)cc2)n1`, with 841 s; and `O=C(NCc1ccccc1)C1CCN(Cc2nncn2-c2ccccc2F)CC1`, with 570 s.
Then `O=C(C1CC(=O)N(c2ccc(F)cc2)C1)N1CCC(c2c[nH]c3ccccc23)CC1` (stereo not drawn), with 810 s; and `Cc1cc2nc(C(=O)Nc3ccccc3F)cc(C)n2n1`, with 1000 s.
Then `CC1CN(c2ccc(Cl)cc2)c2nc3c(c(=O)n(C)c(=O)n3C)n2C1` (stereo not drawn), with 885 s.
In turn, `COc1ccc2[nH]c3c(c2c1)CCN(C(=O)C1CC1)C3c1ccc(F)cc1` (stereo not drawn) showed an RP-LC retention time of 949 s.
Then `Cc1cc(C)cc(NC(=O)c2cc(C)n3nc(C)cc3n2)c1`, with 1160 s; and `CCc1ccccc1S(=O)(=O)N1CCC2(CC1)C(=O)N(CC)c1ccccc12`, with 1130 s.
Take `Cc1ccc(-c2ccc(=O)n(CCCC(=O)N3CCc4ccccc43)n2)cc1`: the RP-LC retention time was found to be 880 s.
Then `COc1ccccc1C(=O)N1CCN(S(=O)(=O)c2cc3c4c(c2)CCC(=O)N4CCC3)CC1`, with 771 s; and `Cn1c(C2CCN(C(=O)c3ccc(Cl)cc3)C2)nc2ccncc21` (stereo not drawn), with 540 s; and `COc1ccc(-c2nc(CN3C(=O)C(O)(c4ccc(C)cc4)c4ccccc43)c(C)o2)cc1` (stereo not drawn), with 1090 s.
Then `COc1cc(OC)cc(C(=O)N2CCn3cnnc3C2)c1`, with 578 s; and `O=C(Cn1c(=O)c2cc(C3CC3)nn2c2ncccc21)NCc1ccccc1`, with 727 s; and `CCc1nnc2nc(N3CCN(C(=O)c4ccc(N(C)C)cc4)CC3)cc(C)n12`, with 609 s.
Then `COc1ccc(Cl)cc1NC(=O)N1CCN(C2=CC3=NC(C)CN3C=N2)CC1` (stereo not drawn), with 664 s; and `Cc1csc(-c2csc(S(=O)(=O)N3CCN(c4ccccc4)CC3)c2)n1`, with 1090 s; and `CCOc1ccccc1NC(=O)N1CCC2(CC1)NC(=O)c1ccccc1N2C`, with 807 s.
In the case of `CC(C)c1nnc(C2CN(C)CC23CCN(Cc2cccc(C(F)(F)F)c2)CC3)o1` (stereo not drawn), the RP-LC retention time was found to be 578 s.
Then `CN(C)C(=O)c1ccc2c(c1)nnn2CCNC(=O)Nc1cc(Cl)ccc1Cl`, with 719 s.
Then `Cc1ccc(-n2ncc3c(=O)n(Cc4nc(-c5ccccc5)no4)cnc32)cc1`, with 1080 s.
Consider `CC1=C(C(=O)N2CCOCC2)C(c2ccc(Br)cc2)C2=C(CCCC2=O)N1` (stereo not drawn), for which the RP-LC retention time amounted to 670 s.
Then `Cn1cc(CC(=O)NCC#CCN2CCc3ccccc3C2)c2ccccc21`, with 578 s; and `CC1CCCN(S(=O)(=O)c2ccc(-n3cnc(C(=O)N4CCCC4)c3)nc2)C1` (stereo not drawn), with 817 s; and `CCc1ccc(-c2noc(-c3nnn(Cc4nc(-c5ccccc5OC)oc4C)c3C)n2)cc1`, with 1270 s.
